Measurements from patent publication US8481576B2 (Abbott GmbH & Co. KG, priority 2004, dated 2013).
Structures can show the parent of a compound that is named as a salt.

molecular target: T1, h5-HT5A receptor (Homo sapiens, UniProt P47898); experiment: [3H]5-CT binding assay h5-HT5A; details: membranes from HEK293 cells expressing h5-HT5A, 2.5 nM [3H]5-CT; read-out: Binding affinity 5-HT5A (Ki)
T1 construct: expressed in transfected cells; host or cells: HEK293
Protocol: 1. [^3H]5-CT binding assay h5-HT5A
Membranes from HEK293-cells, which permanently express the h5-HT5A receptor gene, were incubated in 100 mM Tris-HCl-buffer (pH 7.7), containing 1 mM EDTA in the presence of 2.5 nM [^3H]5-CT (600 μl total volume). The total binding is defined as the binding which is observed when the membranes are incubated alone in the presence of the radioligand. The inhibition induced by the compound is determined by incubation of cell membranes in the presence of the radioligand, and of different concentrations of the compound of interest. Unspecific binding is defined by the binding of [^3H]5-CT, which is obtained by incubation of the membranes as for the total binding but in the presence of 10 μM methiothepine. Following an incubation of 75 minutes at 30° C. the membrane suspension is filtered through GF/B-filters, wrapped in 0.03% PEI, wherein a Skatron® harvest system is used. The radioactivity retained in the filter is quantified by liquid scintillation counting.
In both assays, different concentrations of the test substances are used, and the Ki or the IC50 values are determined.

T1 sequence (P47898 whole entry): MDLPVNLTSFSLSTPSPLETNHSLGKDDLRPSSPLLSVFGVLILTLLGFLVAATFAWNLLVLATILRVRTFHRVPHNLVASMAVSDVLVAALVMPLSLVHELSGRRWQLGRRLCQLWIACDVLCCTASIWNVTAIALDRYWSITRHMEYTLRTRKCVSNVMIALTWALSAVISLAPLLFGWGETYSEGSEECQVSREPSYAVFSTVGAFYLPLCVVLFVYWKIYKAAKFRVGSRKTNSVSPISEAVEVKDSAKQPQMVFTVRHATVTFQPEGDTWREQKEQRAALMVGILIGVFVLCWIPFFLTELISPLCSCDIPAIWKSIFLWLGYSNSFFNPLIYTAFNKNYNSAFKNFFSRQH

Ki | SMILES
< 50 nM | COc1cccc(OC)c1CNC(=N)Nc1nc2c(s1)CN(S(=O)(=O)c1ccccc1)CC2 [Example 225, N-(2,6-dimethoxybenzyl)-N′-[5-(phenylsulfonyl)-4,5,6,7-tetrahydro[1,3]thiazolo[5,4-c]pyridine-2-yl]guanidine]
< 50 nM | COc1cccc(OC)c1CNC(=N)Nc1nc(CN)cs1 [Example 154, N-[4-(aminomethyl)-1,3-thiazole-2-yl]-N′-(2,6-dimethoxybenzyl)guanidine hydrochloride]
50 to 500 nM | COc1ccccc1CNC(=N)Nc1nnc(C)s1 [Example 178, N-(2-methoxybenzyl)-N′-(5-methyl-1,3,4-thiadiazole-2-yl)guanidine]
50 to 500 nM | COc1cccc(OC)c1CNC(=N)Nc1nc(-c2ccc(OC(F)F)cc2)cs1 [Example 109, N-{4-[4-(difluoromethoxy)phenyl]-1,3-thiazole-2-yl}-N′-(2,6-dimethoxybenzyl)guanidine hydrobromide]
50 to 500 nM | COc1cccc(OC)c1CNC(=N)Nc1nc(-c2ccc(C(F)(F)F)cc2)cs1 [Example 107, N-(2,6-dimethoxybenzyl)-N′-{4-[4-(trifluoromethyl)phenyl]-1,3-thiazole-2-yl}guanidine]
< 50 nM | COc1cccc(Cl)c1CNC(=N)Nc1nc(-c2ccccn2)cs1 [Example 133, N-(2-chloro-6-methoxybenzyl)-N′-(4-pyridine-2-yl-1,3-thiazole-2-yl)guanidine]
< 50 nM | COc1cccc(OC)c1CNC(=N)Nc1nc(-c2ccc(Cl)cn2)cs1 [Example 123, N-[4-(5-chloropyridine-2-yl)-1,3-thiazole-2-yl]-N′-(2,6-dimethoxybenzyl)guanidine acetate]
< 50 nM | COc1cccc(OC)c1CNC(=N)Nc1cc(C(C)(C)C)[nH]n1 [Example 204, N-(5-tert-butyl-1H-pyrazole-3-yl)-N′-(2,6-dimethoxybenzyl)guanidine]
< 50 nM | COc1ccccc1CNC(=N)Nc1n[nH]c2ccccc12 [Example 179, N-1H-indazole-3-yl-N′-(2-methoxybenzyl)guanidine acetate]
< 50 nM | COc1cccc(OC)c1CNC(=N)Nc1ncc[nH]1 [Example 177, N-(2,6-dimethoxybenzyl)-N′-1H-imidazole-2-ylguanidine acetate]
< 50 nM | COc1cccc(OC)c1CNC(=N)Nc1cc[nH]n1 [Example 203, N-(2,6-dimethoxybenzyl)-N′-1H-pyrazole-3-ylguanidine]
< 50 nM | COc1cccc(C)c1CNC(=N)Nc1nc(-c2ccccn2)cs1 [Example 140, N-(2-methoxy-6-methylbenzyl)-N′-(4-pyridine-2-yl-1,3-thiazole-2-yl)guanidine]
< 50 nM | COc1cccc(OC)c1CNC(=N)Nc1nc(-c2ccc(F)cn2)cs1 [Example 144, N-(2,6-dimethoxybenzyl)-N′-[4-(5-fluoropyridine-2-yl)-1,3-thiazole-2-yl]guanidine]
< 50 nM | COc1cccc(C)c1CNC(=N)Nc1cc(C(C)(C)C)[nH]n1 [Example 216, N-(5-tert-butyl-1H-pyrazole-3-yl)-N′-(2-methoxy-6-methylbenzyl)guanidine]
< 50 nM | COc1cccc(OC)c1CNC(=N)Nc1nc2c(s1)CNCC2 [Example 223, N-(2,6-dimethoxybenzyl)-N′-(4,5,6,7-tetrahydro[1,3]thiazolo[5,4-c]pyridine-2-yl)guanidine]
> 500 nM | COc1cccc(OC)c1CNC(=N)Nc1nc(-c2ccccc2)ns1 [Example 105, N′-(2,6-dimethoxybenzyl)-N-(3-phenyl-1,2,4-thiadiazole-5-yl)guanidine×0.5 (2E)-But-2-endioate]
> 500 nM | COc1ccccc1CNC(=N)Nc1nnc[nH]1 [Example 184, N-(2-methoxybenzyl)-N′-4H-1,2,4-triazole-3-ylguanidine acetate]
< 50 nM | COc1cccc(OC)c1CNC(=N)Nc1nc2cc(C)c(C)cc2s1 [Example 172, N-(2,6-dimethoxybenzyl)-N′-(5,6-dimethyl-1,3-benzothiazole-2-yl)guanidine fumarate]

More lines, now with the values behind:

SMILES | Ki
COc1ccccc1CNC(=N)Nc1nc(-c2ccc(NS(C)(=O)=O)cc2)cs1 [Example 104, N-{4-[2-({imino[(2-methoxybenzyl)amino]methyl}amino)-1,3-thiazole-4-yl]phenyl}methanesulfonamide] | > 500 nM
COc1ccccc1CNC(=N)Nc1nc(-c2ccccn2)cs1 [Example 41, N-(2-methoxybenzyl)-N′-(4-pyridine-2-yl-1,3-thiazole-2-yl)guanidine] | < 50 nM
COc1ccccc1CNC(=N)Nc1nccs1 [Example 1, N-(2-methoxybenzyl)-N′-1,3-thiazole-2-ylguanidine] | < 50 nM
COc1ccccc1CNC(=N)Nc1nc(C(C)(C)C)cs1 [Example 37, N-(4-tert-butyl-1,3-thiazole-2-yl)-N′-(2-methoxybenzyl)guanidine (2E)-But-2-endioate] | 50 to 500 nM
COc1cccc(OC)c1CNC(=N)Nc1nc(C(c2ccccc2)c2ccccc2)cs1 [Example 76, N-(2,6-dimethoxybenzyl)-N′-[4-(diphenylmethyl)-1,3-thiazole-2-yl]guanidine hydrobromide] | < 50 nM
COc1cccc(OC)c1CNC(=N)Nc1nc(-c2cc(F)cc(F)c2)cs1 [Example 68, N-[4-(3,5-difluorophenyl)-1,3-thiazole-2-yl]-N′-(2,6-dimethoxybenzyl)guanidine hydrobromide] | < 50 nM
COc1cccc(OC)c1CNC(=N)Nc1nc(-c2cc(C(F)(F)F)cc(C(F)(F)F)c2)cs1 [Example 19, N-{4-[3,5-bis(trifluoromethyl)phenyl]-1,3-thiazole-2-yl}-N′-(2,6-dimethoxybenzyl)guanidine hydrobromide] | 50 to 500 nM
COc1cccc(OC)c1CNC(=N)Nc1nc(-c2ccc(C(C)C)cc2)cs1 [Example 95, N-(2,6-dimethoxybenzyl)-N′-[4-(4-isopropylphenyl)-1,3-thiazole-2-yl]guanidine] | 50 to 500 nM
Cc1ccccc1CNC(=N)Nc1nccs1 [Example 12, N-(2-methylbenzyl)-N′-1,3-thiazole-2-ylguandine] | > 500 nM
COc1cccc(F)c1CNC(=N)Nc1nc(C)cs1 [Example 86, N-(2-fluoro-6-methoxybenzyl)-N′-(4-methyl-1,3-thiazole-2-yl)guanidine] | < 50 nM
COc1ccccc1CNC(=N)Nc1nc(C(F)(F)F)cs1 [Example 52, N-(2-methoxybenzyl)-N′-[4-(trifluoromethyl)-1,3-thiazole-2-yl]guanidine (2E)-But-2-endioate] | > 500 nM
COc1cccc(OC)c1CNC(=N)Nc1nc2c(s1)Cc1ccccc1-2 [Example 80, N-(2,6-dimethoxybenzyl)-N′-8H-indeno[1,2-d][1,3]thiazole-2-ylguanidine hydrobromide] | < 50 nM
COc1cccc(OC)c1CNC(=N)Nc1nc(-c2ccc(C)cc2)cs1 [Example 57, N-(2,6-dimethoxybenzyl)-N′-[4-(4-methylphenyl)-1,3-thiazole-2-yl]guanidine] | < 50 nM
CCc1csc(NC(=N)NCc2c(OC)cccc2OC)n1 [Example 3, N-(2,6-dimethoxybenzyl)-N′-(4-ethyl-1,3-thiazole-2-yl)-guanidine] | < 50 nM
CNC(=Nc1nccs1)NCc1ccccc1OC [Example 24, N-(2-methoxybenzyl)-N′-methyl-N″-1,3-thiazole-2-ylguanidine (2E)-But-2-endioate] | > 500 nM
COc1cccc(OC)c1CNC(=N)Nc1nc(-c2nc3ccccc3s2)cs1 [Example 88, N-[4-(1,3-benzothiazole-2-yl)-1,3-thiazole-2-yl]-N′-(2,6-dimethoxybenzyl)guanidine hydrobromide] | < 50 nM
COc1cccc(OC)c1CNC(=N)Nc1nc(-c2cc3ccccc3o2)cs1 [Example 67, N-[4-(1-benzofuran-2-yl)-1,3-thiazole-2-yl]-N′-(2,6-dimethoxybenzyl)guanidine hydrobromide] | < 50 nM
COc1ccccc1CNC(=N)Nc1nc(-c2ccc(OC(F)(F)F)cc2)cs1 [Example 100, N-(2-methoxybenzyl)-N′-{4-[4-(trifluoromethoxy)phenyl]-1,3-thiazole-2-yl}guanidine] | < 50 nM
COc1cccc(OC)c1CNC(=N)Nc1nc2c(s1)CCCC2 [Example 94, N-(2,6-dimethoxybenzyl)-N′-(4,5,6,7-tetrahydro-1,3-benzothiazole-2-yl)guanidine acetate] | < 50 nM
COc1cccc(OC)c1CNC(=N)Nc1nc(-c2ccc(N3CCCC3)cc2)cs1 [Example 63, N-(2,6-dimethoxybenzyl)-N′-[4-(4-pyrrolidine-1-ylphenyl)-1,3-thiazole-2-yl]guanidine hydrobromide] | < 50 nM
COc1cccc(OC)c1CNC(=N)Nc1nc(C)cs1 [Example 32, N-(2,6-dimethoxybenzyl)-N′-(4-methyl-1,3-thiazole-2-yl)guanidine] | < 50 nM
COc1ccccc1CNC(=N)Nc1ccsc1 [Example 30, N-(2-methoxy-benzyl)-N′-thiophene-3-yl-guanidine acetate] | 50 to 500 nM
COc1cccc(OC)c1CNC(=N)Nc1nc(C2CCCCC2)cs1 [Example 97, N-(4-cyclohexyl-1,3-thiazole-2-yl)-N′-(2,6-dimethoxybenzyl)guanidine] | < 50 nM
COc1ccccc1CNC(=N)Nc1ncc(C)s1 [Example 54, N-(2-methoxybenzyl)-N′-(5-methyl-1,3-thiazole-2-yl)guanidine (2E)-But-2-endioate] | < 50 nM
